In ChEMBL document CHEMBL3132769, “Fragment growing to retain or alter the selectivity of anchored kinase hinge-binding fragments” (Medchemcomm, 2014):

What was measured:
[1] = target: T1, Inhibitor of nuclear factor kappa-B kinase subunit beta (Homo sapiens) (UniProt O14920); test: Inhibition of human full length IKK beta expressed in baculovirus assessed as substrate phosphorylation using fluorescence-labelled peptides as substrate at 0.2 uM after 90 mins by microfluidic peptide phosphorylation assay
T1 sequence (whole entry): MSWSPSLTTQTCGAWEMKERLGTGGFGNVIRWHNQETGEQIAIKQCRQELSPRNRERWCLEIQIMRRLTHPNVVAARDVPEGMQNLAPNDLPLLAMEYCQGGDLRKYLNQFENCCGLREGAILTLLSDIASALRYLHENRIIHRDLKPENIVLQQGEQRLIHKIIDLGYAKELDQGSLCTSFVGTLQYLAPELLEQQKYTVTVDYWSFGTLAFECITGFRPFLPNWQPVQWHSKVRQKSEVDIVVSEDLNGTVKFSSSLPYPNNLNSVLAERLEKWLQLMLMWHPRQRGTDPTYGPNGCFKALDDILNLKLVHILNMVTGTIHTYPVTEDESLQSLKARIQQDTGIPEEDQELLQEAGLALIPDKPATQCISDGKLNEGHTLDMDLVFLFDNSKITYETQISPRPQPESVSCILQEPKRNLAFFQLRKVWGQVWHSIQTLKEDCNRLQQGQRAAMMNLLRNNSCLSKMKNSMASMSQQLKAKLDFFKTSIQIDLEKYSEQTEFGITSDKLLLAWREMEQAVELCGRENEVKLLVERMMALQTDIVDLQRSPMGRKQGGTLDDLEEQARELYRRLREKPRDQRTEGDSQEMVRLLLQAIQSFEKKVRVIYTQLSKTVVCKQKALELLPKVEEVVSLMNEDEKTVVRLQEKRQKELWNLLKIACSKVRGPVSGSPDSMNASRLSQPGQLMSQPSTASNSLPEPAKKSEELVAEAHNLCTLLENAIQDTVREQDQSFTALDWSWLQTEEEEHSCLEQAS

[2] = target: Tyrosine-protein kinase Lck (Homo sapiens) (UniProt P06239); test: Inhibition of human full length LCK expressed in baculovirus assessed as substrate phosphorylation using fluorescence-labelled peptides as substrate at 420 uM after 90 mins by microfluidic peptide phosphorylation assay
[3] = target: Serine/threonine-protein kinase pim-1 (Homo sapiens) (UniProt P11309); test: Inhibition of human full length PIM1 expressed in baculovirus assessed as substrate phosphorylation using fluorescence-labelled peptides as substrate at 2 uM after 90 mins by microfluidic peptide phosphorylation assay
[4] = target: T2, Serine/threonine-protein kinase Chk1 (Homo sapiens) (UniProt O14757); test: Inhibition of human full length CHK1 expressed in baculovirus assessed as substrate phosphorylation using fluorescence-labelled peptides as substrate at 2 uM after 90 mins by microfluidic peptide phosphorylation assay
T2 sequence (whole entry): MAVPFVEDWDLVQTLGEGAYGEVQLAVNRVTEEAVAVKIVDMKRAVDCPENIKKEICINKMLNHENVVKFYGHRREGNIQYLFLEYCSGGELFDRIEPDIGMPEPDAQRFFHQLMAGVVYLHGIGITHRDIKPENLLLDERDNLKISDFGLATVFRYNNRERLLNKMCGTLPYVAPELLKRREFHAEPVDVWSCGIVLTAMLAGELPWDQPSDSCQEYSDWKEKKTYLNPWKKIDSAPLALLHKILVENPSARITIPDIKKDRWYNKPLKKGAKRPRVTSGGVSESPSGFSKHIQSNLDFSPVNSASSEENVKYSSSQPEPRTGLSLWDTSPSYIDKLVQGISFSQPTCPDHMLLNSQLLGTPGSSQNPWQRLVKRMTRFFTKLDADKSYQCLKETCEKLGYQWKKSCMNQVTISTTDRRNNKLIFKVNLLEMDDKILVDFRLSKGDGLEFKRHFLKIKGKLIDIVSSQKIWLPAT

[5] = target: Mitogen-activated protein kinase kinase kinase kinase 4 (Homo sapiens) (UniProt O95819); test: Inhibition of human HGK catalytic domain expressed in baculovirus assessed as substrate phosphorylation using fluorescence-labelled peptides as substrate at 2 uM after 90 mins by microfluidic peptide phosphorylation assay
[6] = target: Mitogen-activated protein kinase 3 (Homo sapiens) (UniProt P27361); test: Inhibition of human full length ERK1 expressed in Escherichia coli cell assessed as substrate phosphorylation using fluorescence-labelled peptides as substrate at 0.1 uM after 90 mins by microfluidic peptide phosphorylation assay
[7] = target: T3, Mitogen-activated protein kinase 12 (Homo sapiens) (UniProt P53778); test: Inhibition of human full length p38 gamma expressed in Escherichia coli cell assessed as substrate phosphorylation using fluorescence-labelled peptides as substrate at 95 uM after 90 mins by microfluidic peptide phosphorylation assay
T3 sequence (whole entry): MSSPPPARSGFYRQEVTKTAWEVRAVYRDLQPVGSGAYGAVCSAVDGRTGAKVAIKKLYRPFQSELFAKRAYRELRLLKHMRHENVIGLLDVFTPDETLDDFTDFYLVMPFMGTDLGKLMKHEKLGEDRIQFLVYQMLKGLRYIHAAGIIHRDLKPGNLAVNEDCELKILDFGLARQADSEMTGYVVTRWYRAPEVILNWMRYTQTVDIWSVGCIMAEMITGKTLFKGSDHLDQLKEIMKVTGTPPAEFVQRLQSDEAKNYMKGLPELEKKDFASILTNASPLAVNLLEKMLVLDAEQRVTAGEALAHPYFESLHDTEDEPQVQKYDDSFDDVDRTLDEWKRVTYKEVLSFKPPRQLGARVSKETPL

[8] = target: Mitogen-activated protein kinase 3 (Homo sapiens) (UniProt P27361); test: Inhibition of human full length ERK1 expressed in Escherichia coli cell assessed as substrate phosphorylation using fluorescence-labelled peptides as substrate at 0.06 uM after 90 mins by microfluidic peptide phosphorylation assay
[9] = target: Tyrosine-protein kinase Lyn (Homo sapiens) (UniProt P07948); test: Inhibition of human full length LYN expressed in baculovirus assessed as substrate phosphorylation using fluorescence-labelled peptides as substrate at 70 uM after 90 mins by microfluidic peptide phosphorylation assay
[10] = target: Mitogen-activated protein kinase 14 (Homo sapiens) (UniProt Q16539); test: Inhibition of human truncated p38 alpha expressed in Escherichia coli cell assessed as substrate phosphorylation using fluorescence-labelled peptides as substrate at 1000 uM after 90 mins by microfluidic peptide phosphorylation assay
[11] = target: Mitogen-activated protein kinase kinase kinase kinase 4 (Homo sapiens) (UniProt O95819); test: Inhibition of human HGK catalytic domain expressed in baculovirus assessed as substrate phosphorylation using fluorescence-labelled peptides as substrate at 1000 uM after 90 mins by microfluidic peptide phosphorylation assay

Sequence of Mitogen-activated protein kinase kinase kinase kinase 4 (Homo sapiens) (O95819 2-1239 limits assumed): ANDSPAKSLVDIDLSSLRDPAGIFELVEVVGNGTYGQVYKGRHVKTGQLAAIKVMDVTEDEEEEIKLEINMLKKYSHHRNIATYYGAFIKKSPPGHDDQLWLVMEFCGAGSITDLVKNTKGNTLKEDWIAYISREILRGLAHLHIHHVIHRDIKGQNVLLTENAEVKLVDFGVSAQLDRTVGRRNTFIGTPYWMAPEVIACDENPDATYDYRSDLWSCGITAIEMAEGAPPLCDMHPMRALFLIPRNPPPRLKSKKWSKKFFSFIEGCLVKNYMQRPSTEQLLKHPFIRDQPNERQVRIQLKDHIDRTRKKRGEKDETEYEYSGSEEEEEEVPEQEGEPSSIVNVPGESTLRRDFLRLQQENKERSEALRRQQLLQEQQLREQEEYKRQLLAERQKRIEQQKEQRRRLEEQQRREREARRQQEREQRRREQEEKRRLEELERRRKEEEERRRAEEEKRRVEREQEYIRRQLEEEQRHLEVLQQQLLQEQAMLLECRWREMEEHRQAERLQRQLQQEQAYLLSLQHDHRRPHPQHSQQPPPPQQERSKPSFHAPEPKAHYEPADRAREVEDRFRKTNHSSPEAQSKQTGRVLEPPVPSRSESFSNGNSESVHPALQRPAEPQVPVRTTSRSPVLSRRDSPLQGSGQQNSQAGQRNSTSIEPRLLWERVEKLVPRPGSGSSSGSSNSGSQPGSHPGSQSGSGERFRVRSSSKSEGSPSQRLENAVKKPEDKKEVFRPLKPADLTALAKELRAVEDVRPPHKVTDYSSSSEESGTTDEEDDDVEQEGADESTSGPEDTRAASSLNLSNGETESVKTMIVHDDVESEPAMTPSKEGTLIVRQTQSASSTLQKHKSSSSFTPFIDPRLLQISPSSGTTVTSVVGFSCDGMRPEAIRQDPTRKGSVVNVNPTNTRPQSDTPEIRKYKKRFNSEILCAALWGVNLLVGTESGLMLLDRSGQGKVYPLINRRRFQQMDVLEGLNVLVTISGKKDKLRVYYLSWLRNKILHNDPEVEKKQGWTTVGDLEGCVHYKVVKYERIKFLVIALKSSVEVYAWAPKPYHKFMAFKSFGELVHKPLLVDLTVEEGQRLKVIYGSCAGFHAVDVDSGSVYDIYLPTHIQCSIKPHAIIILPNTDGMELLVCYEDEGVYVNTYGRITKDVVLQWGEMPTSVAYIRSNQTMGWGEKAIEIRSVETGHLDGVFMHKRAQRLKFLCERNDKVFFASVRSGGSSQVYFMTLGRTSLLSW
Sequence of Mitogen-activated protein kinase 3 (Homo sapiens) (P27361 whole entry): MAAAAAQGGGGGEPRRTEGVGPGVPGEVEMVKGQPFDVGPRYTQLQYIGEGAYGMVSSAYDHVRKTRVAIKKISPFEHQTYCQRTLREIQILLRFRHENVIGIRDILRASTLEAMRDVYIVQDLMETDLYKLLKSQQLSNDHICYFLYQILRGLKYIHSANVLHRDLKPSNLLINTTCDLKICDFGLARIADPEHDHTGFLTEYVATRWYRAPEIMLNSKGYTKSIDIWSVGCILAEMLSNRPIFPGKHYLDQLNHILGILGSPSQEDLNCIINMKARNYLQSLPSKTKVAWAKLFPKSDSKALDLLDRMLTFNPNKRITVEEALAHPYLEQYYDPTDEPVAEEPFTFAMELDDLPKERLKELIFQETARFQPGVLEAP
Sequence of Tyrosine-protein kinase Lck (Homo sapiens) (P06239 2-509 limits assumed): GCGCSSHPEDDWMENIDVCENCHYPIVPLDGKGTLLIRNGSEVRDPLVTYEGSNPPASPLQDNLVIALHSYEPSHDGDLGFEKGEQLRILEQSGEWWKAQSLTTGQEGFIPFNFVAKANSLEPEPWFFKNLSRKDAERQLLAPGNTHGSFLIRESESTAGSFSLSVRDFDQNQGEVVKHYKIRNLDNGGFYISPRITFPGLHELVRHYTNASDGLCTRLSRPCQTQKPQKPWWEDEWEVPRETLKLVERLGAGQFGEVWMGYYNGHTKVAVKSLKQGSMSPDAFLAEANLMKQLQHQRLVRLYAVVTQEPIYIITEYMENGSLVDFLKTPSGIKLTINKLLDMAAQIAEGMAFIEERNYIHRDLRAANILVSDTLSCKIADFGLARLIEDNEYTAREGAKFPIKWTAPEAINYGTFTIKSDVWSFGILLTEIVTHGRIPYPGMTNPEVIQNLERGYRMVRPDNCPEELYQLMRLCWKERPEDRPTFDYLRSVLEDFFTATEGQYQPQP
Sequence of Serine/threonine-protein kinase pim-1 (Homo sapiens) (P11309 whole entry, looked up): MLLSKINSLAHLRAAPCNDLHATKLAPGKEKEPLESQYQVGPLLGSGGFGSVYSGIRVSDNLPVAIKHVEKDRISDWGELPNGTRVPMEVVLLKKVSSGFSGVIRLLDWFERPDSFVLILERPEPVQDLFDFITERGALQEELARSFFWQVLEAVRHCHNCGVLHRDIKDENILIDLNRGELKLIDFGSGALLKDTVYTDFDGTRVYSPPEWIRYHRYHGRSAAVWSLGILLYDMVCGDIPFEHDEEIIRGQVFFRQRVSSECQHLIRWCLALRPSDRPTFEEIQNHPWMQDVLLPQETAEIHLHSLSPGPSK
Sequence of Tyrosine-protein kinase Lyn (Homo sapiens) (P07948 2-512 limits assumed): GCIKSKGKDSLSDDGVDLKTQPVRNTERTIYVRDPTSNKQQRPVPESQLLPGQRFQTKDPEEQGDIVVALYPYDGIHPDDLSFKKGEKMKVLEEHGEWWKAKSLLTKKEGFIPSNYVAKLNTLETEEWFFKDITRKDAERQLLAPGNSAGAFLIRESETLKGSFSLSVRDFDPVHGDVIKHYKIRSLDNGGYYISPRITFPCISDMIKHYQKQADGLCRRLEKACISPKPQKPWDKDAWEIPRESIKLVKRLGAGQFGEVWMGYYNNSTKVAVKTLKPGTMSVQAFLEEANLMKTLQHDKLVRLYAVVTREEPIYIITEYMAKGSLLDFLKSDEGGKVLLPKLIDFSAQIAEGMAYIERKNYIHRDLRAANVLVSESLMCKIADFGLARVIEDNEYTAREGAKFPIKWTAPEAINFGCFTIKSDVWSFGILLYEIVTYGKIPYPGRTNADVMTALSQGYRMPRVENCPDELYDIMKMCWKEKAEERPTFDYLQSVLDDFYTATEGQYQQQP
Sequence of Mitogen-activated protein kinase 14 (Homo sapiens) (Q16539 whole entry, the tested form may be a part): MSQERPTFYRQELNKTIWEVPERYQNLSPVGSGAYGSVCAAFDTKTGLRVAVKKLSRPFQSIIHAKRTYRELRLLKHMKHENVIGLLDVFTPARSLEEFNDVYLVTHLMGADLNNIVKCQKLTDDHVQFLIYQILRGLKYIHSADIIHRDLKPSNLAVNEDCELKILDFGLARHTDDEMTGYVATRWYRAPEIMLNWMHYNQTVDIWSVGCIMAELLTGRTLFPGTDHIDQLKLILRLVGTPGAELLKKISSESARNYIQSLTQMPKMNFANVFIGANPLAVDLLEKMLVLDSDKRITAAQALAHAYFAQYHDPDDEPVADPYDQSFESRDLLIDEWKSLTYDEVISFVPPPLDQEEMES

## Clc1ccc(C2(c3ccc(-c4ncnc5[nH]cnc45)cc3)CCNCC2)cc1
[1]
  inhibition: 81%

## c1nc(N2CCOCC2)c2nc[nH]c2n1
[2]
  inhibition: 67.5%

## NC1CCN(c2ncnc3[nH]ccc23)CC1
[3]
  inhibition: 2%
[4]
  inhibition: 1.5%
[5]
  inhibition: 0%

## C[C@H](CN(C)C)Oc1nc(Nc2cc3cccc(Cl)c3cn2)cnc1C#N
[6]
  inhibition: 1%

## NCCc1ccc(-c2ncnc3[nH]cnc23)cc1
[7]
  inhibition: 13%

## NC1(Cc2ccc(Cl)cc2)CCN(c2ncnc3[nH]ccc23)CC1
[8]
  inhibition: 0%

## CNCc1ccc(-c2ncnc3[nH]cnc23)cc1
[9]
  inhibition: 35%

## c1cnc2[nH]ccc2c1
[10]
  inhibition: 0%
[11]
  inhibition: 90%
